US10179770B2, “Quinolines derivatives as novel anticancer agents” (GENOSCIENCE PHARMA, priority 2013, dated 2019)

What was measured:
Assay in all cases: NCI-60 screen (SRB)
Type in all cases: cell-based
786-0 = 786-0 (Renal)
How it was run: (§1)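 Cells grown in RPMI 1640 with 5% FBS were plated, left 24 h, then exposed to five drug concentrations for 48 h at 37 °C. TCA-fixed protein was stained with SRB and read at 515 nm. GI50, TGI and LC50 were derived against time-zero and untreated control absorbances.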

HCC-2998 = HCC-2998 (Colon)
How it was run: as §1

M14 = M14 (Melanoma)
How it was run: as §1

OVCAR-5 = OVCAR-5 (Ovarian)
How it was run: as §1

OVCAR-8 = OVCAR-8 (Ovarian)
How it was run: as §1

SF-539 = SF-539 (CNS)
How it was run: as §1

SK-MEL-28 = SK-MEL-28 (Melanoma)
How it was run: as §1

SK-MEL-5 = SK-MEL-5 (Melanoma)
How it was run: as §1

SNB-19 = SNB-19 (CNS)
How it was run: as §1

T-47D = T-47D (Breast)
How it was run: as §1

UO-31 = UO-31 (Renal)
How it was run: as §1

[1] = Homo sapiens, read-out: LC50 (the source's name)

`CC(C)(C)NC1CCN(c2cc(-c3ccc(Cl)cc3)nc3ccccc23)CC1.Cl.Cl` [XII-4, 2-(4-chloro-phenyl)-4-(4-N-tert-butylamino-piperidin-1-yl)quinoline dihydrochloride] was tested, and the “Growth percent at 10 μM” value (786-0) was “++ (cell growth 40 > % < 60)”, the “Growth percent at 10 μM” value (HCC-2998) was “++++ (cell growth 0 > % < 20)” and the “Growth percent at 10 μM” value (M14) was “×××× (cell growth −60 < % > −80)”. For the same molecule, the “Growth percent at 10 μM” value (OVCAR-5) was “++ (cell growth 40 > % < 60)”, the “Growth percent at 10 μM” value (OVCAR-8) was “− (cell growth % > 80)” and the “Growth percent at 10 μM” value (SF-539) was “++ (cell growth 40 > % < 60)”. For the same molecule, the “Growth percent at 10 μM” value (SK-MEL-28) was “×××× (cell growth −60 < % > −80)”, the “Growth percent at 10 μM” value (SK-MEL-5) was “++++ (cell growth 0 > % < 20)” and the “Growth percent at 10 μM” value (SNB-19) was “− (cell growth % > 80)”. For the same molecule, the “Growth percent at 10 μM” value (T-47D) was “++ (cell growth 40 > % < 60)” and the “Growth percent at 10 μM” value (UO-31) was “+++ (cell growth 20 > % < 40)”.
With `CCN(CC)C1CCN(C(C)c2cc(-c3ccccc3)nc3ccccc23)CC1.Cl.Cl` (stereo not shown) [XIX-3, 2-phenyl-4-{1-[4-(N,N-diethylamino)piperidin-1-yl]-eth-1-yl}quinoline dihydrochloride] the TGI (786-0) was 23 µM, the “Growth percent at 10 μM” value (786-0) was “++ (cell growth 40 > % < 60)” and the GI50 (786-0; Homo sapiens) was 8 µM. For the same molecule, the CC50 (786-0; [1]) was 54 µM, the TGI (HCC-2998) was 13 µM and the “Growth percent at 10 μM” value (HCC-2998) was “++ (cell growth 40 > % < 60)”. It also gave a GI50 (HCC-2998; Homo sapiens) of 4 µM, a CC50 (HCC-2998; [1]) of 44 µM and a GI50 (M14; Homo sapiens) of 2 µM. The CC50 (M14; [1]) was 8 µM, the TGI (M14) was 4 µM and the “Growth percent at 10 μM” value (M14) was “××× (cell growth −40 > % < −60)”. The GI50 (OVCAR-5; Homo sapiens) was 13 µM, the CC50 (OVCAR-5; [1]) was 58 µM and the TGI (OVCAR-5) was 28 µM. The “Growth percent at 10 μM” value (OVCAR-5) was “+ (cell growth 60 > % < 80)”, the GI50 (OVCAR-8; Homo sapiens) was 14 µM and the CC50 (OVCAR-8; [1]) was 62 µM. The TGI (OVCAR-8) was 30 µM, the “Growth percent at 10 μM” value (OVCAR-8) was “+ (cell growth 60 > % < 80)” and the GI50 (SF-539; Homo sapiens) was 11 µM. The CC50 (SF-539; [1]) was 50 µM, the TGI (SF-539) was 23 µM and the “Growth percent at 10 μM” value (SF-539) was “++ (cell growth 40 > % < 60)”. For the same molecule, the GI50 (SK-MEL-28; Homo sapiens) was 2 µM, the CC50 (SK-MEL-28; [1]) was 6 µM and the TGI (SK-MEL-28) was 3 µM. For the same molecule, the “Growth percent at 10 μM” value (SK-MEL-28) was “××× (cell growth −40 > % < −60)”, the GI50 (SK-MEL-5; Homo sapiens) was 2 µM and the CC50 (SK-MEL-5; [1]) was 6 µM. For the same molecule, the TGI (SK-MEL-5) was 3 µM, the “Growth percent at 10 μM” value (SK-MEL-5) was “××××× (cell growth % < −80)” and the GI50 (SNB-19; Homo sapiens) was 13 µM. For the same molecule, the CC50 (SNB-19; [1]) was 59 µM, the TGI (SNB-19) was 28 µM and the “Growth percent at 10 μM” value (SNB-19) was “− (cell growth % > 80)”. It also gave a GI50 (T-47D; Homo sapiens, T47D) of 5 µM, a CC50 (T-47D; Homo sapiens, T47D, read-out: LC50 (the source's name)) of 52 µM and a TGI (T-47D) of 19 µM. The “Growth percent at 10 μM” value (T-47D) was “++ (cell growth 40 > % < 60)”, the GI50 (UO-31; Homo sapiens) was 8 µM and the CC50 (UO-31; [1]) was 22 µM. For the same molecule, the TGI (UO-31) was 22 µM and the “Growth percent at 10 μM” value (UO-31) was “++ (cell growth 40 > % < 60)”.
